According to ChEMBL document CHEMBL6115027, “Bisboronic Ester-Enabled Redox-Targeted Cancer Therapy: A Cascade ROS Consumption Approach for Efficient Elimination of Cancer Cells” (J Med Chem, 2025):
Active and inactive are the calls of the source. The rule behind the calls is not given here.

Experiments:
[1] = test system: HeLa; experiment: Cytotoxicity against human HeLa cells assessed as reduction in cell viability incubated for 24 hrs by CCK-8 assay; format: functional, cell-based
[2] = test system: HeLa; experiment: Induction of apoptosis in human HeLa cells assessed as late apoptotic cells at 6.8 uM incubated for 48 hrs by Annexin V-Alexa fluor 647 and propidium iodide staining based flow cytometry relative to control; format: functional
[3] = test system: HeLa; experiment: Induction of pyroptosis in human HeLa cells at 10.88 to 43.52 uM; format: functional, cell-based; conditions: dose 10.88-43.52 µM
[4] = test system: HeLa; experiment: Induction of apoptosis in human HeLa cells assessed as early apoptotic cells at 13.6 uM incubated for 48 hrs by Annexin V-Alexa fluor 647 and propidium iodide staining based flow cytometry relative to control; format: functional
[5] = test system: T-24; experiment: Cytotoxicity against human T24 cells assessed as reduction in cell viability incubated for 24 hrs by CCK-8 assay; format: functional, cell-based; conditions: T-24, 24 h
[6] = test system: HeLa; experiment: Induction of autophagy in human HeLa cells assessed as change in caspase 4 activity at 21.76 uM incubated for 48 hrs at wavelength of 405 nm by MDC staining based flow cytometric analysis (reference value: 0.052); format: functional
[7] = test system: HeLa; experiment: Induction of autophagy in human HeLa cells assessed as change in caspase 1 activity at 10.88 uM incubated for 48 hrs by MDC staining based flow cytometric analysis (reference value: 0.06); format: functional
[8] = test system: HeLa; experiment: Induction of autophagy in human HeLa cells assessed as change in caspase 4 activity at 10.88 uM incubated for 48 hrs at wavelength of 405 nm by MDC staining based flow cytometric analysis (reference value: 0.052); format: functional
[9] = test system: HeLa; experiment: Induction of ROS generation in human HeLa cells assessed as increase in ROS level incubated for 1 to 36 hrs by DCFH-DA staining based confocal imaging analysis; format: functional, cell-based; conditions: time 1-36 hrs
[10] = test system: HeLa; experiment: Induction of apoptosis in human HeLa cells assessed as viable cells at 27.2 uM incubated for 48 hrs by Annexin V-Alexa fluor 647 and propidium iodide staining based flow cytometry relative to control; format: functional; conditions: read-out: Activity
[11] = test system: HeLa; experiment: Induction of autophagy in human HeLa cells assessed as change in caspase 1 activity at 21.76 uM incubated for 48 hrs by MDC staining based flow cytometric analysis (reference value: 0.06); format: functional
[12] = test system: HeLa; experiment: Induction of apoptosis in human HeLa cells assessed as viable cells at 6.8 uM incubated for 48 hrs by Annexin V-Alexa fluor 647 and propidium iodide staining based flow cytometry relative to control; format: functional; conditions: read-out: Activity
[13] = test system: HeLa; experiment: Induction of apoptosis in human HeLa cells assessed as early apoptotic cells at 6.8 uM incubated for 48 hrs by Annexin V-Alexa fluor 647 and propidium iodide staining based flow cytometry relative to control; format: functional
[14] = test system: HeLa; experiment: Induction of ROS generation in human HeLa cells assessed as increase in ROS level incubated for 48 hrs by DCFH-DA staining based confocal imaging analysis; format: functional, cell-based
[15] = test system: HeLa; experiment: Induction of autophagy in human HeLa cells assessed as change in caspase 1 activity at 43.52 uM incubated for 48 hrs by MDC staining based flow cytometric analysis (reference value: 0.06; format: functional
[16] = test system: HeLa; experiment: Induction of autophagy in human HeLa cells assessed as change in caspase 4 activity at 5.44 uM incubated for 48 hrs at wavelength of 405 nm by MDC staining based flow cytometric analysis (reference value: 0.052); format: functional
[17] = test system: HeLa; experiment: Induction of apoptosis in human HeLa cells assessed as early apoptotic cells at 27.2 uM incubated for 48 hrs by Annexin V-Alexa fluor 647 and propidium iodide staining based flow cytometry relative to control; format: functional
[18] = test system: HeLa; experiment: Induction of apoptosis in human HeLa cells assessed as necrotic cells at 6.8 uM incubated for 48 hrs by Annexin V-Alexa fluor 647 and propidium iodide staining based flow cytometry relative to control; format: functional
[19] = test system: HeLa; experiment: Induction of apoptosis in human HeLa cells assessed as late apoptotic cells at 13.6 uM incubated for 48 hrs by Annexin V-Alexa fluor 647 and propidium iodide staining based flow cytometry relative to control; format: functional
[20] = test system: HeLa; experiment: Induction of apoptosis in human HeLa cells assessed as viable cells at 13.6 uM incubated for 48 hrs by Annexin V-Alexa fluor 647 and propidium iodide staining based flow cytometry relative to control; format: functional; conditions: read-out: Activity
[21] = test system: HeLa; experiment: Induction of apoptosis in human HeLa cells assessed as necrotic cells at 27.2 uM incubated for 48 hrs by Annexin V-Alexa fluor 647 and propidium iodide staining based flow cytometry relative to control; format: functional
[22] = test system: HeLa; experiment: Induction of apoptosis in human HeLa cells assessed as necrotic cells at 13.6 uM incubated for 48 hrs by Annexin V-Alexa fluor 647 and propidium iodide staining based flow cytometry relative to control; format: functional
[23] = test system: HeLa; experiment: Induction of apoptosis in human HeLa cells assessed as late apoptotic cells at 27.2 uM incubated for 48 hrs by Annexin V-Alexa fluor 647 and propidium iodide staining based flow cytometry relative to control; format: functional
[24] = test system: HeLa; experiment: Induction of autophagy in human HeLa cells assessed as change in caspase 4 activity at 43.52 uM incubated for 48 hrs at wavelength of 405 nm by MDC staining based flow cytometric analysis (reference value: 0.052); format: functional
[25] = test system: HeLa; experiment: Induction of autophagy in human HeLa cells assessed as change in caspase 1 activity at 5.44 uM incubated for 48 hrs by MDC staining based flow cytometric analysis (reference value: 0.06); format: functional
[26] = test system: HeLa; experiment: Induction of autophagy in human HeLa cells assessed as change in caspase 1 activity at 87.04 uM incubated for 48 hrs by MDC staining based flow cytometric analysis (reference value: 0.06); format: functional
[27] = test system: HeLa; experiment: Induction of autophagy in human HeLa cells assessed as change in caspase 4 activity at 87.04 uM incubated for 48 hrs at wavelength of 405 nm by MDC staining based flow cytometric analysis (reference value: 0.052); format: functional
[28] = Reactivity of compound assessed as consumption of H2O2 by measuring phenol intermediate formation after 1 hr relative to control; format: physicochemical

Work on `CC1(C)OB(c2ccc(-c3ccc(B4OC(C)(C)C(C)(C)O4)c4ccccc34)c3ccccc23)OC1(C)C` yielded an IC50 [1] of 690 nM.

Compound `CC1(C)OB(c2cc(F)ccc2CCc2ccc(F)cc2B2OC(C)(C)C(C)(C)O2)OC1(C)C` has an IC50 [1] of 1800 nM.

Compound `CC1(C)OB(c2ccc(Cc3ccc(B4OC(C)(C)C(C)(C)O4)c4ccccc34)cc2)OC1(C)C` has an IC50 [1] of 630 nM.

`CC(C)(C)c1cc(B2OC(C)(C)C(C)(C)O2)cc(-c2cc(B3OC(C)(C)C(C)(C)O3)cc(C(C)(C)C)c2)c1` gave an IC50 [1] of 900 nM.

With `Cc1cc(B2OC(C)(C)C(C)(C)O2)cc(-c2cc(C)cc(B3OC(C)(C)C(C)(C)O3)c2)c1` the IC50 [1] was 790 nM.

Work on `COc1ccc(-c2ccc(OC)c(B3OC(C)(C)C(C)(C)O3)c2)cc1B1OC(C)(C)C(C)(C)O1` yielded an IC50 [1] of 830 nM.

In the case of `CC1(C)OB(c2cc(C(=O)Oc3ccc(-c4ccccc4)cc3)cc(-c3cc(B4OC(C)(C)C(C)(C)O4)cc(C(=O)Oc4ccc(-c5ccccc5)cc4)c3)c2)OC1(C)C`, the IC50 [1] is reported as 700 nM.

`CCC1(CC)OB(c2ccc(Cc3ccc(B4OC(C)(C)C(C)(C)O4)cc3)cc2)OC1(CC)CC` showed an IC50 [1] of 2110 nM.

In the case of `CC1(C)OB(c2ccc(CCc3ccc(B4OC(C)(C)C(C)(C)O4)cc3)cc2)OC1(C)C`, the IC50 [1] is reported as 710 nM.

In the case of `CC1(C)OB(c2ccc(-c3ccc(B4OC(C)(C)C(C)(C)O4)c(F)c3)cc2F)OC1(C)C`, the IC50 [1] is reported as 2600 nM.

With `CC1(C)COB(c2ccc(CCc3ccc(B4OCC(C)(C)CO4)cc3)cc2)OC1` the IC50 [1] was 870 nM.

Work on `CC1(C)OB(c2cc(C(F)(F)F)ccc2CCc2ccc(C(F)(F)F)cc2B2OC(C)(C)C(C)(C)O2)OC1(C)C` yielded an IC50 [1] of 700 nM.

Work on `CC1(C)OB(c2cc(C(=O)Oc3ccc4c(c3)OCO4)cc(-c3cc(B4OC(C)(C)C(C)(C)O4)cc(C(=O)Oc4ccc5c(c4)OCO5)c3)c2)OC1(C)C` yielded an IC50 [1] of 1000 nM.

In the case of `CC1(C)OB(c2ccc(F)c(CCc3cc(B4OC(C)(C)C(C)(C)O4)ccc3F)c2)OC1(C)C`, the IC50 [1] is reported as 680 nM, the Activity [2] is reported as 0.073% and the Activity [3] is reported as “Active”. For the same compound, the Activity [4] was 2.44%, the IC50 [5] was 1140 nM and the OD [6] was 0.051. The OD [7] was 0.062, the OD [8] was 0.053 and the Activity [9] was “inactive”. For the same compound, the viability at 27.2 µM [10] was 93.7%, the OD [11] was 0.06 and the viability at 6.8 µM [12] was 96.1%. The Activity [13] was 1.43%, the Activity [14] was “Active” and the OD [15] was 0.061. The OD [16] was 0.052, the Activity [17] was 4.28% and the Activity [18] was 0.38%. The Activity [19] was 0.41%, the viability at 13.6 µM [20] was 95.6% and the Activity [21] was 1.41%. For the same compound, the Activity [22] was 1.54%, the Activity [23] was 0.63% and the OD [24] was 0.051. It also gave an OD [25] of 0.058, an OD [26] of 0.062 and an OD [27] of 0.051.

Work on `CC1(C)OB(c2ccc(CCc3ccc(B4OC(C)(C)C(C)(C)O4)c4ccccc34)c3ccccc23)OC1(C)C` yielded an IC50 [1] of 3440 nM.

With `CC1(C)OB(c2ccc(-c3ccc(B4OC(C)(C)C(C)(C)O4)cc3)cc2)OC1(C)C` the IC50 [1] was 1950 nM and the Activity [28] was 96%.

`CC1(C)OB(c2ccc(-c3ccc(-c4ccc(-c5ccc(B6OC(C)(C)C(C)(C)O6)cc5)cc4)cc3)cc2)OC1(C)C` gave an IC50 [1] of 2270 nM.

Work on `CC1(C)OB(c2ccc(Cc3ccc(B4OC(C)(C)C(C)(C)O4)cc3)cc2)OC1(C)C` yielded an IC50 [1] of 3150 nM.

`CC1(C)COB(c2cccc(CCc3cccc(B4OCC(C)(C)CO4)c3)c2)OC1` gave an IC50 [1] of 3440 nM.

For `CC1(C)OB(c2cccc(CCc3cccc(B4OC(C)(C)C(C)(C)O4)c3F)c2F)OC1(C)C`, the IC50 [1] was 11800 nM.
